Laboratory results reported in ChEMBL document CHEMBL1649420, “Identifying chelators for metalloprotein inhibitors using a fragment-based approach” (J Med Chem, 2011).

Tests used:
[1] = target: Matrix metalloproteinase-9 (Homo sapiens) (UniProt P14780); conditions: at 1 mM;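 further: recombinant human MMP9, activity read after 30 min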
[2] = target: T1, Tyrosinase (Agaricus bisporus) (UniProt O42713); conditions: at 1 mM;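 further: inhibition measured at 10 min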
T1 sequence (whole entry): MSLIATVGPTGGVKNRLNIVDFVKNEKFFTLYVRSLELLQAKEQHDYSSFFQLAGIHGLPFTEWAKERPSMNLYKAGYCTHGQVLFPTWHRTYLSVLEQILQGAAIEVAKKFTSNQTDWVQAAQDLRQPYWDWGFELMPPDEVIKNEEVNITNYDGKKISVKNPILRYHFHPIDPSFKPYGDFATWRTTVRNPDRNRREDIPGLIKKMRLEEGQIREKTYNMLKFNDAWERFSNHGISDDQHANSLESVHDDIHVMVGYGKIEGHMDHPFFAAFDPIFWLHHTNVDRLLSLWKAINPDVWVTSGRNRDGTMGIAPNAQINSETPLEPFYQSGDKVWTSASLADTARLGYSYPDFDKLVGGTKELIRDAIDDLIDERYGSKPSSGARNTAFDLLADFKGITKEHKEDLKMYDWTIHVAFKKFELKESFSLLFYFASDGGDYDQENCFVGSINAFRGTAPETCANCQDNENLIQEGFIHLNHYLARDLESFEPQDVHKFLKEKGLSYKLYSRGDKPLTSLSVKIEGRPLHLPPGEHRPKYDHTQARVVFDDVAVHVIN

[3] = target: 72 kDa type IV collagenase (Homo sapiens, UniProt P08253); conditions: at 1 mM;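 further: recombinant human enzyme, inhibition read after a 30 min incubation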
Chain of 72 kDa type IV collagenase (P08253 110-660 limits assumed): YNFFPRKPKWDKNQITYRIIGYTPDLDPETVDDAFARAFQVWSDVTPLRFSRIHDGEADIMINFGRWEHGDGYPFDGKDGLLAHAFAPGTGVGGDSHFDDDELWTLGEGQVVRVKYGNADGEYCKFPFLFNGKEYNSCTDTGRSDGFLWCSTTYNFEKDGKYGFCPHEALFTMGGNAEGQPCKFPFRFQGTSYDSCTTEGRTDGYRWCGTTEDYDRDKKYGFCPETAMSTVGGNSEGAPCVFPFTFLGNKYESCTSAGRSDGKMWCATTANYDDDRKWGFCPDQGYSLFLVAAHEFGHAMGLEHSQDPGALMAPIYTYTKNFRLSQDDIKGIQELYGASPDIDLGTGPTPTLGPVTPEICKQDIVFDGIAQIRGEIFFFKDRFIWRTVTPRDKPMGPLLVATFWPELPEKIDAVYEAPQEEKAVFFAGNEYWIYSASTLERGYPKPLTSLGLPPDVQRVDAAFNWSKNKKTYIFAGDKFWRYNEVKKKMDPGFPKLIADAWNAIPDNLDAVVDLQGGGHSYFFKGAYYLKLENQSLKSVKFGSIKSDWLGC

[4] = target: Neutrophil collagenase (Homo sapiens) (UniProt P22894); conditions: at 1 mM;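 further: recombinant human MMP8 enzyme, percent inhibition read after 30 min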
Chain of Neutrophil collagenase (Homo sapiens) (P22894 101-467 limits assumed): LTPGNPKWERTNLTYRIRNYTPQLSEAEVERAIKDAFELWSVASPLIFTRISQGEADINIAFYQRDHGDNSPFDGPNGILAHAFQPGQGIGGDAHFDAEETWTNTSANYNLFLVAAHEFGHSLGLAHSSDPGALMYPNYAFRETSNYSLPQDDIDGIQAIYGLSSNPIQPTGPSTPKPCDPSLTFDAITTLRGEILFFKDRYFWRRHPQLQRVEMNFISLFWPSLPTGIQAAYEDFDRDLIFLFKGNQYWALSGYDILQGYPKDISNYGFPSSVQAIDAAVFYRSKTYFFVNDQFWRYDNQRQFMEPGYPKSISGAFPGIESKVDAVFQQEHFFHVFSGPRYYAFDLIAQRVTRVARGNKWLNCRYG

[5] = target: T2, Lethal factor (Bacillus anthracis) (UniProt P15917); conditions: at 1 mM
T2 sequence (whole entry): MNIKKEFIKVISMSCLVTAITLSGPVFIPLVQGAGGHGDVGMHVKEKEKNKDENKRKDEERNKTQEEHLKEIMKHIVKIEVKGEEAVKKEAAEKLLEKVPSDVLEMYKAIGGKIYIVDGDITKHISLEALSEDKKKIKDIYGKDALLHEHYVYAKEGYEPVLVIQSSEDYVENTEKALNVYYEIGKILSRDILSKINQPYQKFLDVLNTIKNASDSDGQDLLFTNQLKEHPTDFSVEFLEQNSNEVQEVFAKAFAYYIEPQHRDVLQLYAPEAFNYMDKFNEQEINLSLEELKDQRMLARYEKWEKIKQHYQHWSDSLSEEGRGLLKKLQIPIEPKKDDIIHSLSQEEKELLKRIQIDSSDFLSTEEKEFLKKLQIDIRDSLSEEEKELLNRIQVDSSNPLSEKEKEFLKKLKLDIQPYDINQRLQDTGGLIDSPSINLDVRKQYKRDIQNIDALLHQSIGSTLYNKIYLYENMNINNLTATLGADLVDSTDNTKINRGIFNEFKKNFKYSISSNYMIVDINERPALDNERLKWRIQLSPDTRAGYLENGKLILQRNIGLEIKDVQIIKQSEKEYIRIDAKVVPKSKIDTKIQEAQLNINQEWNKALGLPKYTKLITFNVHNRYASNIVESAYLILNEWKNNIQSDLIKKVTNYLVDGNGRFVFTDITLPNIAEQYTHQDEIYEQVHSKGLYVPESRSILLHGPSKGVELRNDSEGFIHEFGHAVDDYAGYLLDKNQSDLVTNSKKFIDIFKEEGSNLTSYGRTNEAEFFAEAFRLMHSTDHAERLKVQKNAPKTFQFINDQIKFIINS

[6] = target: Stromelysin-1 (Homo sapiens) (UniProt P08254); conditions: at 1 mM;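 further: recombinant enzyme, inhibition read after a 30 min incubation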
Chain of Stromelysin-1 (Homo sapiens) (P08254 100-477 limits assumed): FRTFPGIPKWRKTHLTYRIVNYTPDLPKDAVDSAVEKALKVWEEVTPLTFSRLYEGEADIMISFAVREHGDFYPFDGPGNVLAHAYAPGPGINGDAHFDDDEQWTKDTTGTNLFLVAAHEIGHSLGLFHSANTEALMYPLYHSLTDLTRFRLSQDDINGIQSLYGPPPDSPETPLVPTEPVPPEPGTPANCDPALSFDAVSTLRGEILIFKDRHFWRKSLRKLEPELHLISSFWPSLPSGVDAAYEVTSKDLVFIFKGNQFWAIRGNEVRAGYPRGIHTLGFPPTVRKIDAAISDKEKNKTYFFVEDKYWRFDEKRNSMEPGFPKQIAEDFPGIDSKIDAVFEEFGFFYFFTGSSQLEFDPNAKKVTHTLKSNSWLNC

[7] = target: T3, Interstitial collagenase (Homo sapiens) (UniProt P03956); conditions: at 1 mM;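 further: recombinant human enzyme, with inhibition measured after 30 min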
T3 sequence (whole entry): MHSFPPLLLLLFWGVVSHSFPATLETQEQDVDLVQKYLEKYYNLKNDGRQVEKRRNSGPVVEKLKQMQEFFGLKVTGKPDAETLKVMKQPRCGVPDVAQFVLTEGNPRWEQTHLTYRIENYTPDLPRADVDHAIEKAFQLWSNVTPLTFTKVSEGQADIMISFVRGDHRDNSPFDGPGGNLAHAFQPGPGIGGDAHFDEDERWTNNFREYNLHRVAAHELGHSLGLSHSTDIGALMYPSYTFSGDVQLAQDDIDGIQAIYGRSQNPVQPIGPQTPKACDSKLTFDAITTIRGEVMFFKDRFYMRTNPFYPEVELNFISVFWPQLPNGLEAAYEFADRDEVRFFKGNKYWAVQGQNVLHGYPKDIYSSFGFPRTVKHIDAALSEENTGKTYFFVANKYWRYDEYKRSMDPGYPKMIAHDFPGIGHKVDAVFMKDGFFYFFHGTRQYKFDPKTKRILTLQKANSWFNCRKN

[8] = target: T4, Polyunsaturated fatty acid 5-lipoxygenase (Homo sapiens) (UniProt P09917); test: Inhibition of human recombinant 5-lipoxygenase at 1 mM after 10 mins by fluorescence assay
T4 sequence (whole entry): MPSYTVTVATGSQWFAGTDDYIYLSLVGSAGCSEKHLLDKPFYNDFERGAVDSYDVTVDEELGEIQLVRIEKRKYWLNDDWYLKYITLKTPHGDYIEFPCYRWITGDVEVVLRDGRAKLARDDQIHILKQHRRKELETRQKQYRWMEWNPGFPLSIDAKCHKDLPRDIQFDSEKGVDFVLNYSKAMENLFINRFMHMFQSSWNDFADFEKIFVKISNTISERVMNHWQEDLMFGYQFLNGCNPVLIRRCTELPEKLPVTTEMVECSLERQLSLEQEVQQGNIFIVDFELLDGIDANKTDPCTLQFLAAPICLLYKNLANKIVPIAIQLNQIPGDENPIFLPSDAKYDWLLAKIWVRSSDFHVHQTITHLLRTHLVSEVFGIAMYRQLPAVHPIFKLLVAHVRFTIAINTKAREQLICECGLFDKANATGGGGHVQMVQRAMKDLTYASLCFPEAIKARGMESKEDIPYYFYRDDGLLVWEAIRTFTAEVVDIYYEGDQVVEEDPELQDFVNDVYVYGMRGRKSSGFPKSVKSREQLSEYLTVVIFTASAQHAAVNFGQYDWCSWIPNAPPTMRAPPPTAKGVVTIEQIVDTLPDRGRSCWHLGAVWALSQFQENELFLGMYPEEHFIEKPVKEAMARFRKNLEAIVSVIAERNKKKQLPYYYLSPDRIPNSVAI

Chain of Matrix metalloproteinase-9 (Homo sapiens) (P14780 whole entry): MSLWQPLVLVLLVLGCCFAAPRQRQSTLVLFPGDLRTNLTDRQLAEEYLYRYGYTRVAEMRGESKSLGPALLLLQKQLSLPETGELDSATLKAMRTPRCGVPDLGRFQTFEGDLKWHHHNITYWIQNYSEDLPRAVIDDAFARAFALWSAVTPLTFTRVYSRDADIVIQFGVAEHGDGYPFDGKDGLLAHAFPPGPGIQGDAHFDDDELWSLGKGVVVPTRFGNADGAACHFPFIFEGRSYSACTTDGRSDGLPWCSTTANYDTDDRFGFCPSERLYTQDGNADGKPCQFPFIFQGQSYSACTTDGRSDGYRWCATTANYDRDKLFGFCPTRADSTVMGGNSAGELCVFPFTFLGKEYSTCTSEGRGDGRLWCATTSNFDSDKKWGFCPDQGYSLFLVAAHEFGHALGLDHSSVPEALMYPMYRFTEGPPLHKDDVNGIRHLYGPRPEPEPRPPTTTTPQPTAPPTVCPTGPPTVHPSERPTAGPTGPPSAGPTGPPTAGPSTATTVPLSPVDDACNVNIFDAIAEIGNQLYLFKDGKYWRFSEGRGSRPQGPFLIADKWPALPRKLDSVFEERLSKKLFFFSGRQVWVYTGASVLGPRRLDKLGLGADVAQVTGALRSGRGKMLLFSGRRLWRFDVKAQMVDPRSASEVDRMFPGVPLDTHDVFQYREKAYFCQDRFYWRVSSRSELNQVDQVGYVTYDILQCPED

Cc1cc(C)nc(S)n1
inhibition [1]: 56%
inhibition [2]: 99%
inhibition [3]: 55%
inhibition [4]: 49%
inhibition [5]: 15%
inhibition [6]: 70%
inhibition [7]: 56%
inhibition [8]: 80%

Oc1ccccc1-c1nc2ccccc2s1
inhibition [1]: 3%
inhibition [2]: 34%
inhibition [3]: 7%
inhibition [4]: 40%
inhibition [5]: 1%
inhibition [6]: 4%
inhibition [7]: 6%

O=c1cc[nH]c(=S)[nH]1
inhibition [1]: 44%
inhibition [2]: 36%
inhibition [3]: 47%
inhibition [4]: 37%
inhibition [5]: 33%
inhibition [6]: 47%
inhibition [7]: 52%

CC(C)c1cccc(C(=O)O)c1O
inhibition [1]: 9%
inhibition [2]: 91%
inhibition [3]: -2%
inhibition [4]: 3%
inhibition [5]: -3%
inhibition [6]: 5%
inhibition [7]: 13%
inhibition [8]: -3%

Oc1cc(O)nc(S)n1
inhibition [1]: 15%
inhibition [2]: 99%
inhibition [3]: 17%
inhibition [4]: 25%
inhibition [5]: 18%
inhibition [6]: 38%
inhibition [7]: 30%
inhibition [8]: 72%

Cc1cc(=O)[nH]c(=S)[nH]1
inhibition [1]: 27%
inhibition [2]: 31%
inhibition [3]: 26%
inhibition [4]: 31%
inhibition [5]: 29%
inhibition [6]: 37%
inhibition [7]: 40%
inhibition [8]: 70%

O=C1C=C(O)C(=O)c2ccccc21
inhibition [1]: 85%
inhibition [2]: 69%
inhibition [3]: 84%
inhibition [4]: 86%
inhibition [5]: 100%
inhibition [6]: 84%
inhibition [7]: 86%
inhibition [8]: 100%

CCc1c(O)c(=S)ccn1CC
inhibition [1]: 100%
inhibition [2]: 100%
inhibition [3]: 100%
inhibition [4]: 94%
inhibition [5]: 55%
inhibition [6]: 99%
inhibition [7]: 81%
inhibition [8]: 97%

Cn1cccc(O)c1=S
inhibition [1]: 96%
inhibition [2]: 93%
inhibition [3]: 100%
inhibition [4]: 96%
inhibition [5]: 56%
inhibition [6]: 90%
inhibition [7]: 89%
inhibition [8]: 93%

COc1ccccc1S
inhibition [1]: 17%
inhibition [3]: 3%
inhibition [4]: 26%
inhibition [5]: 19%
inhibition [6]: -8%
inhibition [7]: 11%

Oc1ccccc1-c1nc2ccccc2o1
inhibition [2]: 3%
inhibition [3]: 1%
inhibition [4]: 28%
inhibition [5]: 0%
inhibition [6]: 4%
inhibition [7]: 11%

[O-][n+]1ccccc1S
inhibition [1]: 77%
inhibition [2]: 81%
inhibition [3]: 91%
inhibition [4]: 90%
inhibition [5]: 23%
inhibition [6]: 100%
inhibition [7]: 78%
inhibition [8]: 70%

Oc1nccc(S)n1
inhibition [1]: 90%
inhibition [2]: 44%
inhibition [4]: 83%
inhibition [5]: 22%
inhibition [6]: 95%
inhibition [7]: 90%
inhibition [8]: 46%

Nc1cccc2cccnc12
inhibition [1]: 57%
inhibition [3]: 51%
inhibition [4]: 61%
inhibition [5]: 30%
inhibition [6]: 56%
inhibition [7]: 63%

Cc1c(O)c(=S)ccn1C
inhibition [1]: 100%
inhibition [2]: 100%
inhibition [3]: 100%
inhibition [4]: 95%
inhibition [5]: 51%
inhibition [6]: 99%
inhibition [7]: 78%
inhibition [8]: 95%

O=c1ccc2ccccc2[nH]1
inhibition [1]: 5%
inhibition [2]: 5%
inhibition [3]: 5%
inhibition [4]: 33%
inhibition [5]: 36%
inhibition [6]: 3%
inhibition [7]: 20%
inhibition [8]: 22%

CCn1ccc(=S)c(O)c1C
inhibition [1]: 100%
inhibition [2]: 100%
inhibition [3]: 100%
inhibition [4]: 93%
inhibition [5]: 60%
inhibition [6]: 99%
inhibition [7]: 98%
inhibition [8]: 96%

Cc1ccc(C(=O)O)c(C(=O)O)n1
inhibition [1]: -10%
inhibition [2]: 96%
inhibition [4]: 11%
inhibition [5]: 43%
inhibition [6]: 28%
inhibition [7]: 8%
inhibition [8]: 22%

Oc1ccc2ccccc2c1O
inhibition [1]: 86%
inhibition [3]: 71%
inhibition [4]: 100%
inhibition [5]: 85%
inhibition [6]: 89%
inhibition [7]: 71%
inhibition [8]: 69%

Oc1ccc(Cl)c2cccnc12
inhibition [1]: 1%
inhibition [2]: 0%
inhibition [3]: 60%
inhibition [4]: 73%
inhibition [5]: 44%
inhibition [6]: 45%
inhibition [7]: 39%

O=C(O)c1ccc(O)c(O)c1
inhibition [1]: -1%
inhibition [2]: 50%
inhibition [3]: -8%
inhibition [4]: 13%
inhibition [5]: 21%
inhibition [6]: 0%
inhibition [7]: 14%
inhibition [8]: 86%

CS(=O)(=O)Nc1cccc2cccnc12
inhibition [1]: 59%
inhibition [3]: 84%
inhibition [4]: 75%
inhibition [6]: 64%
inhibition [7]: 57%
inhibition [8]: 13%
